According to US8293513B2, “Histone deacetylase inhibitors” (Georgetown University, priority 2007, dated 2012):
Like-named read-outs stand apart in the source and are kept apart here.

Key:
[1] = target: HeLa nuclear extracts (histone deacetylase); type: biochemical; conditions: pan-HDAC inhibition assay
Procedure: Reactions were stopped after 15 min with Fluor de Lys Developer. […] The reaction was performed in triplicate for each sample. Each point represents the mean±SD of replicates.

[2] = target: HDAC3 (Homo sapiens, UniProt O15379); test: HDAC isoform inhibition assay (Fluor de Lys, purified protein); type: biochemical
[3] = target: HDAC1 (Homo sapiens, UniProt Q13547); test: as above; type: biochemical
[4] = target: T1, HDAC6 (Homo sapiens, UniProt Q9UBN7); test: as above; type: biochemical
T1 sequence (Q9UBN7 1-1215): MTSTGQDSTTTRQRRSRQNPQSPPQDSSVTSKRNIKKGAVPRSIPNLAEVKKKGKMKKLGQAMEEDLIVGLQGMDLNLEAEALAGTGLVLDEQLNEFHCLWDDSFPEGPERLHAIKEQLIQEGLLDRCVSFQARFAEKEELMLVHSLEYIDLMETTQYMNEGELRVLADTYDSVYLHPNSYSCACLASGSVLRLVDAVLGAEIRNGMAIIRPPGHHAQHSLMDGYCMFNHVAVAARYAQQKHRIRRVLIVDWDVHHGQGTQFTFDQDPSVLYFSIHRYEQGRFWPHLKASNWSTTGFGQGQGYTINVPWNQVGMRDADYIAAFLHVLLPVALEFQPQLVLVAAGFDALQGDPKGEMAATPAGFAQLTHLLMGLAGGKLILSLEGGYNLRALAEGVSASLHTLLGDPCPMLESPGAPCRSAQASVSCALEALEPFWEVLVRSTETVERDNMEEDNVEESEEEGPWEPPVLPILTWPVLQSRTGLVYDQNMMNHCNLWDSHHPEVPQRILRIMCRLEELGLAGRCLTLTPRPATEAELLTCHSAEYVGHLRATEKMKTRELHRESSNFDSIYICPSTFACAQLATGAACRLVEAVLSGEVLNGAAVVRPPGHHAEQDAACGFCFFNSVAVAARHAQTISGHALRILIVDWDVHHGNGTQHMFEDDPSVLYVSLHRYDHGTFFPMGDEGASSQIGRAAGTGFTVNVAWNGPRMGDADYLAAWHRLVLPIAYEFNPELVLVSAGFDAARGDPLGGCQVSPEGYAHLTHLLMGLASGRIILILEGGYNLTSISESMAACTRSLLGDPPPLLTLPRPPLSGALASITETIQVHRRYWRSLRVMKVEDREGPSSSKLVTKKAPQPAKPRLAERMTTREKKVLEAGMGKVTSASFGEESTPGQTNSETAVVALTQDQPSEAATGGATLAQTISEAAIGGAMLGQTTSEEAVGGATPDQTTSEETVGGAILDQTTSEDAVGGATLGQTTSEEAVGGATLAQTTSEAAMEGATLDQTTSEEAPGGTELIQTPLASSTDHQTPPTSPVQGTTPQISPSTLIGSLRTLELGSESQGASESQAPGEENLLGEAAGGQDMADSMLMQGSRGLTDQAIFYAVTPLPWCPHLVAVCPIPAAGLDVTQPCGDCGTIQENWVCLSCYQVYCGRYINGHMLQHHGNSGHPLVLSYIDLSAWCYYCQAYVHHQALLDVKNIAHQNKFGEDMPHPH

[5] = test system: DU145 cells; test: Fluorescence imaging of compound localization in cells; type: cell-based, human; conditions: DU-145 cells, for 60 minutes (FIG. 2)
Procedure: (§1) Human prostate cancer cell lines PC-3 and DU145 cells were plated down onto glass slides at a density of 500,000 per slide and incubated overnight. […] The slides were then washed three times with phosphate-buffered saline. The cells were then fixed with a 4% solution of formaldehyde for ten minutes, washed four times with phosphate-buffered saline and mounted. For slides with nuclear staining, cells were treated with propidium iodide (1:1000) for 4 minutes after fixation, washed four times with PBS and mounted.
(§2) Propidium Iodide was imaged with an excitation wavelength of 535 and an emission wavelength of 617. Images were taken at 63×.

[6] = test system: PC-3 cells; test: as above; type: cell-based, human; conditions: 20 μM
Procedure: as §1, §2

[7] = target: HDAC2 (Homo sapiens, UniProt Q92769); test: HDAC isoform inhibition assay (Fluor de Lys, purified protein); type: biochemical
[8] = Emission and excitation spectra; type: physicochemical
Procedure: Measurement of the emission and excitation spectra for the compound of Example 1 was performed to confirm the corresponding range for fluorescent visualization in cancer cells and to confirm the fluorescent property of the compound.

[9] = target: T2, HDAC8 (Homo sapiens, UniProt Q9BY41); test: biochemical
T2 sequence (Q9BY41 1-377): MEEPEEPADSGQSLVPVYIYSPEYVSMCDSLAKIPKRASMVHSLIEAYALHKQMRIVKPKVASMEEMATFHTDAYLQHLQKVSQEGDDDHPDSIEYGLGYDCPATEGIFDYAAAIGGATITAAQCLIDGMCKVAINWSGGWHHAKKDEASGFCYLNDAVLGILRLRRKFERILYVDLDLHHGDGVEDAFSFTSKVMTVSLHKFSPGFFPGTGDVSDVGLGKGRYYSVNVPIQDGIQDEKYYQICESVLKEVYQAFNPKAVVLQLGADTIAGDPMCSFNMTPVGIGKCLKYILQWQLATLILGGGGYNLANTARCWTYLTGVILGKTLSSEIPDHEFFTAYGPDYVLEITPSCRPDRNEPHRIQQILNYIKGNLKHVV

[10] = test system: PC-3 cells; test: Cell cycle distribution (propidium iodide, FACS); type: cell-based; conditions: PC-3, 24 hours after adding the compound
Procedure: (§3) LNCap and PC-3 cells were incubated in the presence or absence of compound. The cells were harvested at the indicated time points after addition of compound then washed twice with cold phosphate-buffered saline. Cells (1-2×10^6) were resuspended in 0.5 ml of ice-cold phosphate-buffered saline, and single cell suspension was verified microscopically. The cell suspension was gradually mixed with ice-cold absolute ethanol to the final volume of 2.0 ml, and cooled on ice at least for 20 min before staining with propidium iodide. The cell cycle distributions were measured in a fluorescence-activated cell sorter from Becton Dickinson. DNA content was quantified using ModFit LT 3.0 software (Verity Software House, Inc.).

[11] = test system: LNCap cells; test: Cell cycle distribution (propidium iodide, FACS); type: cell-based; conditions: 24 hours after adding the compound
Procedure: as §3

[12] = test system: A549 (lung cancer) cells; test: Imaging of tubulin acetylation; type: cell-based; conditions: 20 μM, 60 minutes (FIG. 4), versus untreated control
Procedure: Images A, B, and C show the cells after treatment with the histone deacetylase inhibitor (20 μM) for 60 minutes. […] Image C is the DIC image, while image D is a merger of images A, B, and C.

[13] = test system: A549 cells; test: Imaging of histone acetylation; type: cell-based; conditions: 20 μM, 60 minutes (FIG. 5), versus untreated control
Procedure: Images A, B, C and D show the cells after treatment with the histone deacetylase inhibitor (20 μM) for 60 minutes. […] Image C is the DIC image.

[14] = test system: C42 (androgen-independent prostate cancer); test: Cell growth inhibition (CellTiter 96 AQueous One, MTS); type: cell-based; conditions: C4-2; C42 cells, 48 hours; read-out: Proliferation IG50 C42
Procedure: (§4) The cell lines used were PC-3 (prostate cancer), C42 (androgen-independent prostate cancer), LNCap (androgen-dependent prostate cancer), SQ20B (squamous cell carcinoma), MCF7 (breast cancer) and MDA-231 (breast cancer).
(§5) Cells were seeded at 5,000 per well in […] of growing medium in 96-well tissue culture plates. At 24 hours after seeding, a solution of the compound or DMSO vehicle control were added to each well to a total volume of […] (three replicates per concentration), and incubated for 48 hours at 37° C. Growth inhibition was determined using CellTiter 96® AQueous One Solution Cell Proliferation according to manufacturer's instructions (Technical Bulletin: CellTiter 96® AQueous One Solution Cell Proliferation Assay. Instructions for Use of Products G3580, G3581 and G3582; Promega, Inc. Madison, Wis., Revised 4/2005), and the absorbance measured at 490 nm on a microplate reader. The CellTiter 96® AQueous One Solution Cell Proliferation Assay is a colorimetric method for determining the number of viable cells in proliferation, cytotoxicity or chemosensitivity assays and contains a tetrazolium compound [3-(4,5-dimethylthiazol-2-yl)-5-(3-carboxymethoxyphenyl)-2-(4-sulfophenyl)-2H-tetrazolium, inner salt; “MTS”] and an electron coupling reagent (phenazine ethosulfate; PES). The MTS tetrazolium compound (Owen's reagent) is bioreduced by cells into a colored formazan product that is soluble in tissue culture medium. Assays are performed by adding a small amount of the CellTiter 96® AQueous One Solution Reagent directly to culture wells, incubating for 1-4 hours and then recording the absorbance at 490 nm with a 96-well plate reader. The quantity of formazan product as measured by the absorbance at 490 nm is directly proportional to the number of living cells in culture.
(§6) The 50% growth inhibition (IG50) was calculated as the compound concentration required to reduce cell number by 50% compared with control.

[15] = test system: LNCap (androgen-dependent prostate cancer); test: as above; type: cell-based; conditions: Homo sapiens; LNCap cells, 48 hours; read-out: Proliferation IG50 LNCap
Procedure: as §4, §5, §6

[16] = test system: PC-3 (prostate cancer); test: as above; type: cell-based; conditions: Homo sapiens, PC3 cells, 48 hours, read-out: Proliferation IG50 PC3
Procedure: as §4, §5, §6

[17] = test system: MDA-231 (breast cancer); test: as above; type: cell-based; conditions: Homo sapiens, MDA-MB-231; MDA-231 cells, 48 hours; read-out: Proliferation IG50 MDA-231
Procedure: as §4, §5, §6

[18] = test system: SQ20B (squamous cell carcinoma); test: as above; type: cell-based; conditions: Homo sapiens; SQ20B cells, 48 hours; read-out: Proliferation IG50 SQ20B
Procedure: as §4, §5, §6

[19] = test system: MCF7 (breast cancer); test: as above; type: cell-based; conditions: Homo sapiens; MCF7 cells, 48 hours; read-out: Proliferation IG50 MCF7
Procedure: as §4, §5, §6

[20] = target: HDAC4 (Homo sapiens, UniProt P56524); conditions: PC3 cells, 1 μM, 24 hours (FIG. 6)
Procedure: Human prostate cancer PC3 cells were cultured in Dulbecco's Modified Eagle's Medium (DMEM) with 5% serum at 37° C. over night. […] Control cells were incubated in the absence of test compound.
After 24 hours, the cells were washed with phosphate-buffered saline (1×) one time, and fixed with 4% percent of paraformaldehyde for 15 min. Non specific binding was blocked with 10% normal goat serum in phosphate-buffered saline containing 0.2% tween-20 (sigma aldrich P7949) for 1 hour. Cells were treated with mouse monoclonal anti-HDAC4 antibody (Sigma Aldrich H0163) 1:200 dilution in 5% goat serum in PBS for 1 hour at room temperature. The cells were washed three times with phosphate buffered saline (1×). […] The cells were washed with phosphate-buffered saline (1×) three times. Vecta shield mounting medium for florescence with DIPA (Vector laboratory H-1200) were loaded on the cells and covered with cover glass. The cells were then treated with HDAC4 antibody to visualize HDAC4 and with 4′,6-diamidino-2-phenylindole (DAPI) to visualize the nuclei.
Fluorescence microscopy was used to observe the immunohistostaining results.

[21] = HeLa nuclear extracts (Table 2), read-out: HDAC IC50
[22] = HeLa nuclear extracts (Table 3), read-out: pan-HDAC IC50

Chain of HDAC2 (Q92769 whole entry, species assumed, canonical isoform): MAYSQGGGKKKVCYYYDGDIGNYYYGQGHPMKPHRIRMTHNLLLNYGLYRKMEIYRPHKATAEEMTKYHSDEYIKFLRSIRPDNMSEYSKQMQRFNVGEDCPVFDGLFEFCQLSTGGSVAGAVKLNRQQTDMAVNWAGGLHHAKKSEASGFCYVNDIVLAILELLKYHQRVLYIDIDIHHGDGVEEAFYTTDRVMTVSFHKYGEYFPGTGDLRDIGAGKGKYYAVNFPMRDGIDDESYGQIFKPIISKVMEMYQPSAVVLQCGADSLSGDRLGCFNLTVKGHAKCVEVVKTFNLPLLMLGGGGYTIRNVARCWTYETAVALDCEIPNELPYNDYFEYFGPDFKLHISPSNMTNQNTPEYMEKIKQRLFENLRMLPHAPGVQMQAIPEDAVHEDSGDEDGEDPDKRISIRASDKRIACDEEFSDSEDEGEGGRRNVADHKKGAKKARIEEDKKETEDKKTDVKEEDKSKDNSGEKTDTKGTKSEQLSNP
Chain of HDAC1 (Q13547 whole entry, species assumed): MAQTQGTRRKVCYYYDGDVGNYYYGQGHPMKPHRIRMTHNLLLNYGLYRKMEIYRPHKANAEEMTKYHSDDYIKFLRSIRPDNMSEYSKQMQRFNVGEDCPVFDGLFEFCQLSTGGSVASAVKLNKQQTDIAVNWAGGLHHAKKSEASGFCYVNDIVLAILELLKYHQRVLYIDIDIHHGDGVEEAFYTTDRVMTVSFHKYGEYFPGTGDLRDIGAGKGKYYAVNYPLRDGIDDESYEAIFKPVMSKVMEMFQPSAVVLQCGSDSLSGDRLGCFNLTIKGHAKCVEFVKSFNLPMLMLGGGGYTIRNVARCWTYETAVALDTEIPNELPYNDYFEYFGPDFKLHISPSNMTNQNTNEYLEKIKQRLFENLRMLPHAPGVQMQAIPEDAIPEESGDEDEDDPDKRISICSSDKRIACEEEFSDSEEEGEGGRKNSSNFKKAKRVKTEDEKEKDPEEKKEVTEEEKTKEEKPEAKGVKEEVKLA
Chain of HDAC3 (O15379 whole entry, species assumed, canonical isoform): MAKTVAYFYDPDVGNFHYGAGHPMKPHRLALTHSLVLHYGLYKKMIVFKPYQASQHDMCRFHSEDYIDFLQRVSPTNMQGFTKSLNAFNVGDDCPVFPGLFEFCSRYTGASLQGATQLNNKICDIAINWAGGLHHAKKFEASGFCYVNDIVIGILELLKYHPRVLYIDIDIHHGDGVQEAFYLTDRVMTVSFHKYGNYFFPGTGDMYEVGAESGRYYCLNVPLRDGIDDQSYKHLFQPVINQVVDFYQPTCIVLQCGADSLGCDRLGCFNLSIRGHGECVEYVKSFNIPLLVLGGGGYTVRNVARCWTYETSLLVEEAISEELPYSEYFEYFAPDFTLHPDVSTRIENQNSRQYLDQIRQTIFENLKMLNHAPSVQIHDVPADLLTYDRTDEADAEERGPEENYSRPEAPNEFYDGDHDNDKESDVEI
Chain of HDAC3 (O75376 395-489 partner limits assumed, species assumed): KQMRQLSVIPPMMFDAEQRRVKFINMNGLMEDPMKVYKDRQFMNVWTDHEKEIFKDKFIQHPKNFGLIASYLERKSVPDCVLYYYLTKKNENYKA
Chain of HDAC4 (P56524 whole entry): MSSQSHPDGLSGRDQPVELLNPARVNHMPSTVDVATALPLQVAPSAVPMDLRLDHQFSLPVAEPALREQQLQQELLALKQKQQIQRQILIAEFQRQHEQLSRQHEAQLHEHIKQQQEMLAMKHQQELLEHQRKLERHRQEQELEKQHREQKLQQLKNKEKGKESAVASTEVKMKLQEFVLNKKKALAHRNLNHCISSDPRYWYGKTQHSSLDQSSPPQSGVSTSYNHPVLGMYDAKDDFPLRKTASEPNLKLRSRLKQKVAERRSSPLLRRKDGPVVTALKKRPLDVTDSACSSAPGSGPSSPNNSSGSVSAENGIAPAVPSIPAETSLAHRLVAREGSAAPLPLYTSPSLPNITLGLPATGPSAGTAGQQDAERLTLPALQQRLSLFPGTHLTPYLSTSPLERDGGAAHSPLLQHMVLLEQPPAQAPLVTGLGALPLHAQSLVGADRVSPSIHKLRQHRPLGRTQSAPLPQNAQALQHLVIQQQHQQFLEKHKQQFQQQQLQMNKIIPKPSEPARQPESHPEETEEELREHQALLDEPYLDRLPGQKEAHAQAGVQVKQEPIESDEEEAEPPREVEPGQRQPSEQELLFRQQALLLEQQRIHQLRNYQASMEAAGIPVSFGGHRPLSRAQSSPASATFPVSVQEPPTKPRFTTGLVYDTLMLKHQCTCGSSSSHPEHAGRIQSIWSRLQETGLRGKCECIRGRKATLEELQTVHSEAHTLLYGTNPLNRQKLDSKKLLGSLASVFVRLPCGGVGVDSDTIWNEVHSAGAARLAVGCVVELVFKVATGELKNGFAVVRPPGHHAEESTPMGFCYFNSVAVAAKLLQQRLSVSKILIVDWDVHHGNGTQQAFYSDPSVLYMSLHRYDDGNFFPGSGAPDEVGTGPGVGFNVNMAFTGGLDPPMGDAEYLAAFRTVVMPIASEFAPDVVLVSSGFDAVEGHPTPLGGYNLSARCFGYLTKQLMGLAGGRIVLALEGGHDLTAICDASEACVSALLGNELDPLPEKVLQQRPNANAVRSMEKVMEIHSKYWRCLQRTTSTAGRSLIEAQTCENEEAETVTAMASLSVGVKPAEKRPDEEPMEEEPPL

Row | Compound | IC50 [1, 21] | IC50 [2] | IC50 [1, 22] | IC50 [3] | IC50 [4] | IC50 [7] | Cell cycle distribution G1 [10] | Cell cycle distribution G2 [10] | Cell cycle distribution S [10] | other results
1 | CN(C)c1cccc2c(S(=O)(=O)NCCCCCCCC(=O)NO)cccc12 [Example 4] | 208 nM |  |  |  |  |  |  |  |  | 
2 | CN(C)c1cccc2c(S(=O)(=O)NCCCCC(=O)NO)cccc12 [Example 2] | 287 nM |  |  |  |  |  |  |  |  | 
3 | CN(C)c1cccc2c(S(=O)(=O)NCCCCCC(=O)NO)cccc12 [Example 1, 6-(5-(Dimethylamino)naphthalene-1-sulfonamido)-N-hydroxyhexanamide] | 125 nM | 1.12 µM | 125 nM | 956 nM | 129 nM | 1.38 µM | 64.35% | 15.74% | 19.91% | Localization of compound fluorescence in cells [5]: seen fluorescing (green fluorescence) in the cytoplasm; Co-localization with nuclei stained with propidium iodide ([6]; PC3 cells, 60 min (FIG. 3)): does not localize to nuclei; Localization of compound fluorescence in cells ([6]; PC-3 cells, 60 minutes (FIG. 2)): present in the cytoplasm but not the nucleus of cells; Emiss (emission wavelength) [8]: 500 nm; Exc (excitation wavelength) [8]: 320 nm; IC50 [9]: 2900 nM; Cell cycle distribution G1 [11]: 85.23%; Cell cycle distribution G2 [11]: 5.59%; Cell cycle distribution S [11]: 9.18%; Tubulin acetylation in the cytoplasm [12]: increased tubulin acetylation; Histone acetylation in the nucleus [13]: increased nuclear histone acetylation; IC50 [14]: 1.91 nM; IC50 [15]: 1.22 nM; IC50 [16]: 1.54 nM; IC50 [17]: 12.2 nM; IC50 [18]: 6.42 nM; IC50 [19]: 9.2 nM
4 | O=C(CCCCCCC(=O)Nc1ccccc1)NO [SAHA, suberoylanilide hydroxamic acid, reference compound] |  |  |  |  |  |  | 72.28% | 13.39% | 14.33% | HDAC4 distribution between cytoplasm and nuclei [20]: traps HDAC4 in the cytoplasm of the cells
5 | CN(C)c1cccc2c(S(=O)(=O)NCCCCCCC(=O)NO)cccc12 [Example 3] | 116 nM | 4.89 µM | 116 nM | 1290 nM | 76.2 nM | 7.4 µM |  |  |  | 
